In patent publication US10874687B1 (Atea Pharmaceuticals, Inc., priority 2020, dated 2020):
Several values for one entry are separate records, joined by “and”; a condition that tells them apart may be missing. Equal entries are not always repeated. Where two headings read alike, the source gives them in different places. Marks after values point to notes of the source that are not given here.

Columns and labels:
HCoV-229E [1] = conditions: HCoV-229E in MRC-5 cells; cited from earlier work
HCoV-OC43 [2] = experiment: microbe, parasite or virus in culture; assay type: cell-based, human coronavirus beta-OC43; conditions: Betacoronavirus 1, OC43, Huh-7, read-out: VYR EC90
SARS-CoV (Urbani) = experiment: microbe, parasite or virus in culture; assay type: cell-based, SARS-CoV-1
MERS-CoV (EMC) = experiment: microbe, parasite or virus in culture; assay type: cell-based
SARS-CoV-2 (WA1) = experiment: microbe, parasite or virus in culture; assay type: cell-based
[3] = tested on: HCoV-229E, HCoV-OC43, SARS-CoV-1 and SARS-CoV-2; experiment: organism not typed; assay type: cell-based, human coronaviruses; conditions: read-out: individual EC90 values
HCoV = experiment: Protection of MES-1 cells from virus-induced cytopathogenicity (MTT); assay type: cell-based; conditions: unidentified human coronavirus, 72 h, 50% protection of MES-1 cells, day 3 post-infection
Description: (§1) After a 3-day incubation at 37° C. cell viability was determined by the MTT method as described by Pauwels et al. (J. Virol. Methods 1988, 20, 309-321).

in vitro [4] = conditions: human
in vitro [5] = conditions: human; remark: listed apart in the source
HCoV-229E [6] = experiment: microbe, parasite or virus in culture; assay type: cell-based, human coronavirus alpha-229E
Huh-7 cells = conditions: human
mock infected BHK cells = experiment: Cytotoxicity in mock infected BHK-21 cells (MTT); assay type: cell-based, hamster; conditions: mock infected BHK cells; MTT; 3 days; Table 2B
Description: (§2) To determine the cytotoxicity, cells were seeded at an initial density of 1×10^6 cells/mL in 96 well plates containing Minimum Essential Medium with Earles's salts (MEM-E), L-glutamine, 1 mM sodium pyruvate and 25 mg/L kanamycin, supplemented with 10% fetal bovine serum. Cell cultures were then incubated at 37° C. in a humidified 5% CO2 atmosphere in the absence or presence of serial dilutions of test compounds. Cell viability was determined by the MTT method.
(§3) BHK-21 cells: Test compounds were dissolved in DMSO at 100 mM and then diluted in Minimum Essential Medium with Earle's salts (MEM-E) containing 1 mM sodium pyruvate and 25 μg/mL kanamycin, supplemented with 10% FBS (growth medium) to final concentrations of 100, 20, 4 and 0.8 μM (two 24-well replica plates each). After BHK-21 cells were grown to confluency in 96-well plates, growth medium was replaced with fresh maintenance medium (growth medium with 1% inactivated FBS in place of 10% FBS) containing serially diluted test compound and HCoV-229E at a multiplicity of infection (MOI) of 0.01. Uninfected cells in the presence of serially diluted compound were used to assess the cytotoxicity of compounds. After a 3-day incubation at 37° C. in a humidified 5% CO2 atmosphere, cell viability was determined by the MTT method (Pauwels, R et al. J. Virol. Methods 20(4):309-321 (1988)).

[7] = Cytotoxicity in mock infected BHK-21 cells (MTT); assay type: cell-based, hamster; conditions: hamster
Description: as §2, §3

in vitro [8] = conditions: human; remark: listed apart in the source
[9] = Plasma PK of metabolites in non-human primates after oral Compound 2A; conditions: cynomolgus, cynomolgus monkey, in vivo, 30 mg/kg
[10] = tested on: mock infected MES-1 cells; experiment: Cytotoxicity in mock infected MES-1 cells (MTT); assay type: cell-based; conditions: 3 days, Table 3B
Description: as §2

[11] = Cytotoxicity in mock infected MES-1 cells (MTT); assay type: cell-based; conditions: Table 3A
Description: as §2

HCoV-229E [12] = experiment: Protection of BHK-21 cells from virus-induced cytopathogenicity (MTT); assay type: cell-based, human coronavirus; conditions: for EC50: Human coronavirus 229E
Description: as §1
In an initial screening, BHK-21 cells acutely infected with a seasonal human alpha coronavirus, HCoV-229E, were exposed to serial dilutions of Compound 1A. […] No toxicity was detected from either drug.
as §3

HCoV-OC43 [13] = experiment: microbe, parasite or virus in culture; assay type: cell-based, human coronavirus beta-OC43

Q: Which results are given for `CNc1nc(N)nc2c1ncn2[C@@H]1O[C@H](CO[P@@](=O)(N[C@@H](C)C(=O)OC(C)C)Oc2ccccc2)[C@@H](O)[C@@]1(C)F` [Compound 1A]?
A: EC50 (HCoV-229E [1]): > 100000 nM; EC90 (HCoV-OC43 [2]): 290 nM; Selectivity Index (SARS-CoV (Urbani); CC50/EC90, SARS-CoV (Urbani) in Huh7 cells): >250; EC90 (SARS-CoV (Urbani); Severe acute respiratory syndrome coronavirus, Huh-7, read-out: Virus Yield Reduction Assay EC90): 340 nM and 0.2 µg/mL; EC90 (MERS-CoV (EMC); Middle East respiratory syndrome-related coronavirus, Huh-7, read-out: average EC90, MERS-CoV in Huh-7): 36000 nM; EC90 (MERS-CoV (EMC); read-out: average EC90, MERS-CoV in Huh-7): 37000 nM; EC90 (SARS-CoV-2 (WA1); Severe acute respiratory syndrome coronavirus 2, HAE, read-out: EC90 of the single replicates): 570 nM; EC90 (SARS-CoV-2 (WA1); Severe acute respiratory syndrome coronavirus 2, HAE, read-out: Virus Yield Reduction Assay EC90): 470 nM and 0.37 µg/mL; EC90 (SARS-CoV-2 (WA1); Severe acute respiratory syndrome coronavirus 2, HAE, read-out: average EC90): 540 nM; EC90 (SARS-CoV-2 (WA1); Severe acute respiratory syndrome coronavirus 2, HAE, read-out: replicate EC90 determinations): 0.33 µg/mL; EC90 (SARS-CoV-2 (WA1); read-out: Virus Yield Reduction Assay EC90): 510 nM and 640 nM; EC90 (SARS-CoV-2 (WA1); read-out: average EC90): 500 nM and ~550 nM; EC90 [3]: 340 to 1200 nM; EC50 (HCoV; Table 3A): 1600 nM; EC50 (HCoV; Table 3B): 2000 nM; CC50 (in vitro [4]): > 50 µg/mL; CC50 (in vitro [5]): > 86000 nM; Selectivity Index (CC50/EC90) (HCoV-229E [6]; HCoV-229E in Huh-7): >75; EC50 (HCoV-229E [6]; Human coronavirus 229E, Huh-7, read-out: Neutral Red Assay EC50): 1700 nM; EC50 (HCoV-229E [6]; Human coronavirus 229E, Huh-7, read-out: Neutral Red EC50): 1000 nM; EC90 (HCoV-229E [6]; Human coronavirus 229E, Huh-7, read-out: VYR EC90): 710 nM; EC90 (HCoV-229E [6]; Human coronavirus 229E, Huh-7, read-out: Virus Yield Reduction Assay EC90): 1000 nM; EC50 (HCoV-229E [6]; Human coronavirus 229E, Huh-7, read-out: Visual EC50): 1000 nM; EC50 (HCoV-229E [6]; read-out: Neutral Red Assay EC50): 1600 nM; Neutral Red Assay CC50 (Huh-7 cells): >50^ μg/mL; CC50 (mock infected BHK cells): > 100000 nM; CC50 at 3 days ([7]; mock infected BHK-21 cells, mock infected BHK cells, MTT, 3 days, Table 2A): > 100000 nM; CC50 at 3 days ([7]; uninfected BHK-21 cells, BHK-21, Table 5): > 100000 nM; CC50 (in vitro [8]; Neutral Red Assay CC50): > 86000 nM; CC50 (in vitro [8]; Neutral Red CC50): > 50000 nM; CC50 (in vitro [8]; Visual CC50): > 50000 nM; AUC(0-t) [9]: 0.44 µM·h; Cmax [9]: 640 nM; Tmax [9]: 30 to 60 min; half-life [9]: 44.4 min; CC50 [10]: > 100000 nM; CC50 at 3 days [11]: > 100000 nM; Selectivity Index (HCoV-229E [12]; CC50/EC50, HCoV-229E in BHK-21): >58^c; EC50 (HCoV-229E [12]; BHK, 72 h, 50% protection of BHK cells, MTT, day 3 post-infection, Table 2A, read-out: EC50): 1600 nM; EC50 (HCoV-229E [12]; BHK, 72 h, 50% protection of BHK cells, MTT, day 3 post-infection, Table 2B, read-out: EC50): 2000 nM; EC50 (HCoV-229E [12]; BHK-21, HCoV-229E in BHK-21, dye staining, average of 2 experiments, Table 5, read-out: EC50): 1800 nM; EC50 (HCoV-229E [12]; BHK-21, HCoV-229E in BHK-21, the 2 experiments behind the average, read-out: EC50 of the single experiments): 1600 nM; EC50 (HCoV-OC43 [13]; Betacoronavirus 1, OC43, RD, read-out: Neutral Red Assay EC50): 2800 nM; EC90 (HCoV-OC43 [13]; Betacoronavirus 1, OC43, RD, read-out: Virus Yield Reduction Assay EC90): 2200 nM; Selectivity Index (CC50/EC90) (HCoV-OC43 [13]; HCoV-OC43 in RD): >39
